Test results published in US20250228239A1, “MOLECULES HAVING PESTICIDAL UTILITY, AND INTERMEDIATES, COMPOSITIONS, AND PROCESSES, RELATED THERETO” (priority 2024, published 2025).
Read-outs that look alike come from different tables or passages of the source.

What was measured:
Type in all cases: in vivo
[1] = system: Green Peach Aphid (Myzus persicae, MYZUPE); assay: Bioassays on Green Peach Aphid (GPA), foliar spray on cabbage seedlings; settings: 72 h
Procedure: Certain molecules disclosed in this document were tested against GPA using procedures described in the following example. In the reporting of the results, the “GPA & YFM Rating Table” was used (See Table Section).
Cabbage seedlings grown in 3-inch pots, with 2-3 small (3-5 cm) true leaves, were used as test substrate. The seedlings were infested with 20-50 GPA (wingless adult and nymph stages) one day prior to chemical application. Four pots with individual seedlings were used for each treatment. Test molecules (2 mg) were dissolved in 2 mL of acetone/methanol (1:1) solvent, forming stock solutions of 1000 ppm test molecule. The stock solutions were diluted 5× with 0.025% Tween 20 in water to obtain the solution at 200 ppm test molecule. A hand-held aspirator-type sprayer was used for spraying a solution to both sides of […] leaves until runoff. Reference plants (solvent check) were sprayed with the diluent only containing 20% by volume of acetone/methanol (1:1) solvent. Treated plants were held in a holding room for three days at approximately 25° C. and ambient relative humidity (RH) prior to grading. Evaluation was conducted by counting the number of live aphids per plant under a microscope. Percent control was measured using Abbott's correction formula (W. S. Abbott, “A Method of Computing the Effectiveness of an Insecticide” J. Econ. Entomol. 18 (1925), pp. 265-267) as follows. Corrected % Control=100*(X−Y)/X where X=No. of live aphids on solvent check plants and Y=No. of live aphids on treated plants. The results are indicated in the table entitled “Table ABC: Biological Results” (See Table Section).

[2] = system: Cabbage Looper (Trichoplusia ni, TRIPNI); assay: Bioassays on Cabbage Looper (CL), 128-well diet tray assay; settings: Trichoplusia ni
How it was run: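 Second-instar larvae (1–5 per well) placed on artificial diet surface-treated with 50 μg/cm^2 test molecule applied in 90:10 acetone-water and dried. Held at 25° C., 14:10 light-dark, for five to seven days. Percent mortality scored per well and averaged over eight wells.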

[3] = system: Beet Armyworm (Spodoptera exigua, LAPHEG); assay: Bioassays on Beet Armyworm (BAW), 128-well diet tray assay; settings: Spodoptera exigua
How it was run: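 Percent larval mortality, averaged across eight wells, scored after five to seven days at 25° C. under 14:10 light-dark. Each well held one to five second instars feeding on diet dosed at 50 μg/cm^2 with compound from 90:10 acetone-water, solvent dried off.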

[4] = system: Yellow Fever Mosquito (Aedes aegypti, AEDSAE); settings: for YFM: Table ABC: Biological Results, species YFM
How it was run: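 Larvae ~1 day old, in liver powder/water; compound from 4000 ppm DMSO stock diluted with water/acetone (90:10); 6 reps; lidded, RT, 3 d; mortality scored per well, rated.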

[5] = Table ABC: Biological Results, species GPA, read-out: GPA
[6] = Table ABC: Biological Results, species CL, read-out: CL
[7] = Table ABC: Biological Results, species BAW, read-out: BAW
[8] = Green Peach Aphid, rating class, read-out: GPA
[9] = Cabbage Looper, rating class, read-out: CL
[10] = Beet Armyworm, rating class, read-out: BAW

| Structure (SMILES) | pest or weed control at 200 µg/mL [1, 5] | pest or weed control at 50 µg/cm2 [2, 6] | pest or weed control at 50 µg/cm2 [3, 7] | YFM [4] | other results |
| --- | --- | --- | --- | --- | --- |
| Nc1c(F)ccc(NC(=O)c2cc(NC(=O)[C@H]3[C@H](c4ccc(F)c(C(F)(F)F)c4)C3(Cl)Cl)ccc2Cl)c1F (relative stereo) [DP8, trans-N-(3-amino-2,4-difluorophenyl)-2-chloro-5-(2,2-dichloro-3-(4-fluoro-3-(trifluoromethyl)phenyl)cyclopropane-1-carboxamido)benzamide] | – | – | – | – | mortality at 200 ppm ([1]; 200 ppm test molecule sprayed on infested cabbage seedlings, three days, Abbott's corrected % control, read-out: GPA % Control (or Mortality) rating): 80 to 100%; pest or weed control at 200 µg/mL ([1]; Green Peach Aphid, Table ABC / ABC-DP rating, read-out: GPA rating): 80 to 100%; mortality at 50 µg/cm2 ([2]; 168 h, second instar larvae, 50 μg/cm^2 of test molecule on artificial diet, 25° C., five to seven days, average of eight wells, read-out: CL % Control (or Mortality) rating): 50 to 100%; pest or weed control at 50 µg/cm2 ([2]; Cabbage Looper, Table ABC / ABC-DP rating, read-out: CL rating): 50 to 100%; mortality at 50 µg/cm2 ([3]; 168 h, second instar larvae, 50 μg/cm^2 of test molecule on artificial diet, 25° C., five to seven days, average of eight wells, read-out: BAW % Control (or Mortality) rating): 50 to 100%; pest or weed control at 50 µg/cm2 ([3]; Beet Armyworm, Table ABC / ABC-DP rating, read-out: BAW rating): 50 to 100%; YFM rating ([4]; Yellow Fever Mosquito, Table ABC / ABC-DP rating): A (80–100); YFM % Control (or Mortality) rating ([4]; about 1 day-old larvae, 4000 ppm master solution diluted with 90:10 water/acetone, 15 μL per well plus 220 μL larval mixture, 3 days, mortality): A (80–100) |
| O=C(Nc1ccc(F)cc1F)c1cc(NC(=O)[C@H]2[C@H](c3cc(Cl)c(Cl)c(Br)c3)C2(Cl)Cl)ccc1Cl (relative stereo) [F1007, trans-5-(3-(3-Bromo-4,5-dichlorophenyl)-2,2-dichlorocyclopropane-1-carboxamido)-2-chloro-N-(2,4-difluorophenyl)benzamide] | 80 to 100% | 50 to 100% | 50 to 100% | A (80–100) | – |
| C#CCN(C(=O)c1cc(NC(=O)[C@H]2[C@H](c3cc(Cl)cc(Cl)c3)C2(Cl)Cl)ccc1Cl)c1ccc(F)cc1C#N (relative stereo) [F1072, trans-2-Chloro-N-(2-cyano-4-fluorophenyl)-5-(2,2-dichloro-3-(3,5-dichlorophenyl)cyclopropane-1-carboxamido)-N-(prop-2-yn-1-yl)benzamide] | 0 to 80% | 50 to 100% | 50 to 100% | A (80–100) | – |
| Nc1c(F)ccc(NC(=O)c2cc(NC(=O)[C@H]3[C@H](c4ccc(Cl)c(C(F)(F)F)c4)C3(Cl)Cl)ccc2Cl)c1F (relative stereo) [F1079, trans-N-(3-Amino-2,4-difluorophenyl)-2-chloro-5-(2,2-dichloro-3-(4-chloro-3-(trifluoromethyl)phenyl)cyclopropane-1-carboxamido)benzamide] | 80 to 100% | 50 to 100% | 50 to 100% | A (80–100) | – |
| O=C(Nc1ccc(F)cc1F)c1cc(NC(=O)[C@H]2[C@H](c3ccc(S(F)(F)(F)(F)F)cc3)C2(Cl)Cl)ccc1Cl (relative stereo) [F1089, trans-2-Chloro-5-(2,2-dichloro-3-(4-(pentafluoro-λ^6-sulfanyl)phenyl)cyclopropane-1-carboxamido)-N-(2,4-difluorophenyl)benzamide] | 0 to 80% | 50 to 100% | 50 to 100% | A (80–100) | – |
| CCN(C(=O)c1cc(NC(=O)[C@H]2[C@H](c3cc(Cl)cc(Cl)c3)C2(Cl)Cl)ccc1Cl)c1ccc(F)cc1C#N (relative stereo) [F1091, trans-2-Chloro-N-(2-cyano-4-fluorophenyl)-5-(2,2-dichloro-3-(3,5-dichlorophenyl)cyclopropane-1-carboxamido)-N-ethylbenzamide] | 0 to 80% | 50 to 100% | 50 to 100% | A (80–100) | – |
| N#Cc1cc(F)ccc1N(Cc1ccccc1)C(=O)c1cc(NC(=O)[C@H]2[C@H](c3cc(Cl)cc(Cl)c3)C2(Cl)Cl)ccc1Cl (relative stereo) [F1099, trans-N-Benzyl-2-chloro-N-(2-cyano-4-fluorophenyl)-5-(2,2-dichloro-3-(3,5-dichlorophenyl)cyclopropane-1-carboxamido)benzamide] | 0 to 80% | 50 to 100% | 50 to 100% | A (80–100) | – |
| O=C(Nc1ccc(F)cc1)c1c(Cl)ccc(NC(=O)[C@H]2[C@H](c3ccc(F)c(Cl)c3)C2(Cl)Cl)c1Cl (relative stereo) [F1103, trans-2,6-Dichloro-3-(2,2-dichloro-3-(3-chloro-4-fluorophenyl)cyclopropane-1-carboxamido)-N-(4-fluorophenyl)benzamide] | 0 to 80% | 50 to 100% | 50 to 100% | A (80–100) | – |
| O=C(Nc1ccc(F)cc1F)c1c(Cl)ccc(NC(=O)[C@H]2[C@H](c3ccc(F)c(Cl)c3)C2(Cl)Cl)c1Cl (relative stereo) [F1105, trans-2,6-dichloro-3-(2,2-dichloro-3-(3-chloro-4-fluorophenyl)cyclopropane-1-carboxamido)-N-(2,4-difluorophenyl)benzamide] | 0 to 80% | 50 to 100% | 50 to 100% | A (80–100) | – |
| O=C(Nc1ccccc1)c1c(F)ccc(NC(=O)[C@H]2[C@H](c3ccc(F)c(Cl)c3)C2(Cl)Cl)c1F (relative stereo) [F1108, trans-3-(2,2-Dichloro-3-(3-chloro-4-fluorophenyl)cyclopropane-1-carboxamido)-2,6-difluoro-N-phenylbenzamide] | 80 to 100% | 50 to 100% | 50 to 100% | A (80–100) | – |
| O=C(Nc1ccc(F)cc1F)c1cc(NC(=O)[C@H]2[C@H](c3cc(Cl)c(Cl)c(C(F)(F)F)c3)C2(Cl)Cl)ccc1Cl (relative stereo) [F1147, trans-2-Chloro-5-(2,2-dichloro-3-(3,4-dichloro-5-(trifluoromethyl)phenyl)cyclopropane-1-carboxamido)-N-(2,4-difluorophenyl)benzamide] | 80 to 100% | 50 to 100% | 50 to 100% | A (80–100) | – |
| CC(=O)Nc1c(F)ccc(NC(=O)c2cc(NC(=O)[C@H]3[C@H](c4ccc(Cl)c(C(F)(F)F)c4)C3(Cl)Cl)ccc2Cl)c1F [F1658, N-(3-Acetamido-2,4-difluorophenyl)-2-chloro-5-((1R,3R)-2,2-dichloro-3-(4-chloro-3-(trifluoromethyl)phenyl)cyclopropane-1-carboxamido)benzamide] | – | – | – | – | pest or weed control at 200 µg/mL [1, 8]: 0 to 80%; pest or weed control at 50 µg/cm2 [2, 9]: 50 to 100%; pest or weed control at 50 µg/cm2 [3, 10]: 50 to 100% |
| CCOC(C)C(=O)Nc1c(F)ccc(NC(=O)c2cc(NC(=O)[C@H]3[C@H](c4ccc(F)c(Cl)c4)C3(Cl)Cl)ccc2Cl)c1F (stereo partly drawn) [F1698, 2-Chloro-5-((1R,3R)-2,2-dichloro-3-(3-chloro-4-fluorophenyl)cyclopropane-1-carboxamido)-N-(3-(2-ethoxypropanamido)-2,4-difluorophenyl)benzamide] | – | – | – | – | pest or weed control at 200 µg/mL [1, 8]: 0 to 80%; pest or weed control at 50 µg/cm2 [2, 9]: 50 to 100%; pest or weed control at 50 µg/cm2 [3, 10]: 50 to 100% |
| N#CCC(=O)Nc1c(F)ccc(NC(=O)c2cc(NC(=O)[C@H]3[C@H](c4ccc(F)c(Cl)c4)C3(Cl)Cl)ccc2Cl)c1F [F1700, 2-Chloro-N-(3-(2-cyanoacetamido)-2,4-difluorophenyl)-5-((1R,3R)-2,2-dichloro-3-(3-chloro-4-fluorophenyl)cyclopropane-1-carboxamido)benzamide] | – | – | – | – | pest or weed control at 200 µg/mL [1, 8]: 0 to 80%; pest or weed control at 50 µg/cm2 [2, 9]: 50 to 100%; pest or weed control at 50 µg/cm2 [3, 10]: 50 to 100% |
| COCC(=O)Nc1c(F)ccc(NC(=O)c2cc(NC(=O)[C@H]3[C@H](c4ccc(F)c(C(F)(F)F)c4)C3(Cl)Cl)ccc2Cl)c1F [F1724, 2-Chloro-5-((1R,3R)-2,2-dichloro-3-(4-fluoro-3-(trifluoromethyl)phenyl)cyclopropane-1-carboxamido)-N-(2,4-difluoro-3-(2-methoxyacetamido)phenyl)benzamide] | – | – | – | – | pest or weed control at 200 µg/mL [1, 8]: 80 to 100%; pest or weed control at 50 µg/cm2 [2, 9]: 50 to 100%; pest or weed control at 50 µg/cm2 [3, 10]: 50 to 100% |
